“Also recorded” adds a separate entry of the source. Where a name gives a salt, the structure may show the parent alone.
Columns and labels:
[1] = Moisture balance / vapor sorption (hygroscopicity); format: physicochemical; settings: for phase post vapor sorption experiment: based on XRPD results; for hygroscopicity: 5% to 95% relative humidity; for relative humidity above which the material is hygroscopic: vapor sorption curve; for sorbed water retained: upon drying back down to ambient relative humidity; for relative humidity by which the material fully re-hydrates: after drying to 5% relative humidity
Experimental: Moisture balance data was collected using a VTI SGA 100 or SGA CX symmetrical vapor sorption analyzer. Relative humidity was varied in increments or 5%, starting at 5% relative humidity thereby increasing to 95% relative humidity, and then undergoing a drying cycle back to 5% relative humidity. Equilibrium criteria was set at 0.01% weight change in 1 minute with a max equilibrium time of 180 minutes. Approximately 1-15 mg of sample was used.

[2] = 4 months
Experimental: (§1) Chemical and physical stability was initiated on these forms and samples were stored at 60° C., 40° C./75% RH, 25° C./60% RH, and 5° C.

[3] = Chemical and physical solid state stability on storage; settings: for form change on storage: up to 4 months (phosphate salt up to 6 weeks)
Experimental: as §1

[4] = Storage at ambient conditions (form conversion); format: physicochemical; settings: stored at ambient conditions
[5] = Thermal stability characteristics; format: physicochemical
Experimental: The thermal properties of AMG151 samples were characterized using a DSC Q1000 or DSC Q 100, TA Instruments, differential scanning calorimetry, and a TGA Q 500, TA Instruments, thermogravimetric analyzer. Data analysis was performed utilizing Universal Analysis 2000, TA Instruments. Heating rates of 10° C./min were used over a variety of temperature ranges for differential scanning calorimetry and thermogravimetric analysis. Samples ranging from <1-5 mg were prepared in crimped or open aluminum pans for DSC analysis.

[6] = Exposure to 95% relative humidity chamber/jar, then XRPD; format: physicochemical
Experimental: The DSC curve indicates a broad endotherm around 150° C. (attributed to desolvation), and one sharp endotherm around 193° C. (attributed to a melt). The TG curve indicates a 5.0% weight loss up to 175° C.
The phosphate salt Form D material was generated from desolvating Form C, and a representative XRPD pattern is shown in FIG. 34. The sample appears to be crystalline with an irregular morphology. The DSC curve indicates a sharp endotherm around 193° C. (attributed to a melt). […] The material appears to retain this sorbed water upon drying down to 15% relative humidity; however, upon reaching 5% relative humidity the material losses all of its sorbed water and returns to dry weight.

[7] = vapor sorption, as high as 95% relative humidity

| phase post vapor sorption experiment [1] | hygroscopicity ([1]; vapor sorption) | relative humidity above which the material is hygroscopic [1] | weight change [1, 7] [%] | SMILES | further results |
| --- | --- | --- | --- | --- | --- |
| remained unchanged | hygroscopic | – | – | Cc1ncccc1Oc1cc(Sc2ccccn2)cnc1Nc1nc([C@H](O)CO)ns1 [Amorphous AMG151, (1S)-1-[5-({3-[(2-methylpyridin-3-yl)oxy]-5-(pyridin-2-ylsulfanyl)pyridin-2-yl}amino)-1,2,4-thiadiazol-3-yl]ethane-1,2-diol] | – |
| remained unchanged | non-hygroscopic | – | – | Cc1ncccc1Oc1cc(Sc2ccccn2)cnc1Nc1nc([C@H](O)CO)ns1 [Form A, (1S)-1-[5-({3-[(2-methylpyridin-3-yl)oxy]-5-(pyridin-2-ylsulfanyl)pyridin-2-yl}amino)-1,2,4-thiadiazol-3-yl]ethane-1,2-diol] | – |
| remained unchanged | non-hygroscopic | – | – | Cc1ncccc1Oc1cc(Sc2ccccn2)cnc1Nc1nc([C@H](O)CO)ns1 [Form F, (1S)-1-[5-({3-[(2-methylpyridin-3-yl)oxy]-5-(pyridin-2-ylsulfanyl)pyridin-2-yl}amino)-1,2,4-thiadiazol-3-yl]ethane-1,2-diol] | time found chemically stable [2]: up to 4 months; form change on storage ([3]; 40° C./75% RH): no form change; form change on storage ([3]; 60° C., listed as free base form F): no form change |
| – | – | – | – | Cc1ncccc1Oc1cc(Sc2ccccn2)cnc1Nc1nc([C@H](O)CO)ns1 [Form G, (1S)-1-[5-({3-[(2-methylpyridin-3-yl)oxy]-5-(pyridin-2-ylsulfanyl)pyridin-2-yl}amino)-1,2,4-thiadiazol-3-yl]ethane-1,2-diol] | form conversion on storage [4]: readily convert to Form F |
| converted to an amorphous phase | hygroscopic | above 55 % relative humidity | 9 | Cc1ncccc1Oc1cc(Sc2ccccn2)cnc1Nc1nc([C@H](O)CO)ns1 [HCl salt Form A, (1S)-1-[5-({3-[(2-methylpyridin-3-yl)oxy]-5-(pyridin-2-ylsulfanyl)pyridin-2-yl}amino)-1,2,4-thiadiazol-3-yl]ethane-1,2-diol] | – |
| converted to an amorphous phase | hygroscopic | above 75 % relative humidity | 20 | Cc1ncccc1Oc1cc(Sc2ccccn2)cnc1Nc1nc([C@H](O)CO)ns1 [HCl salt Form B, (1S)-1-[5-({3-[(2-methylpyridin-3-yl)oxy]-5-(pyridin-2-ylsulfanyl)pyridin-2-yl}amino)-1,2,4-thiadiazol-3-yl]ethane-1,2-diol] | – |
| converted to Form C | hygroscopic | above 65 % relative humidity | 16.5 | Cc1ncccc1Oc1cc(Sc2ccccn2)cnc1Nc1nc([C@H](O)CO)ns1 [MSA salt Form B, (1S)-1-[5-({3-[(2-methylpyridin-3-yl)oxy]-5-(pyridin-2-ylsulfanyl)pyridin-2-yl}amino)-1,2,4-thiadiazol-3-yl]ethane-1,2-diol] | stability of the phase as a function of relative humidity [1]: unstable as a function of relative humidity; sorbed water retained [1]: 2-3% |
| remained unchanged | hygroscopic | above 75 % relative humidity | 18 | Cc1ncccc1Oc1cc(Sc2ccccn2)cnc1Nc1nc([C@H](O)CO)ns1 [MSA salt Form C, (1S)-1-[5-({3-[(2-methylpyridin-3-yl)oxy]-5-(pyridin-2-ylsulfanyl)pyridin-2-yl}amino)-1,2,4-thiadiazol-3-yl]ethane-1,2-diol] | sorbed water retained [1]: 2-3% |
| remained unchanged | non-hygroscopic | – | 0.075 | Cc1ncccc1Oc1cc(Sc2ccccn2)cnc1Nc1nc([C@H](O)CO)ns1 [fumarate co-crystal Form A, (1S)-1-[5-({3-[(2-methylpyridin-3-yl)oxy]-5-(pyridin-2-ylsulfanyl)pyridin-2-yl}amino)-1,2,4-thiadiazol-3-yl]ethane-1,2-diol] | form change on storage ([3]; 40° C./75% RH): no form change; form change on storage ([3]; 60° C.): no form change |
| – | hygroscopic | – | – | Cc1ncccc1Oc1cc(Sc2ccccn2)cnc1Nc1nc([C@H](O)CO)ns1 [mono-hydrochloride salt Form C, (1S)-1-[5-({3-[(2-methylpyridin-3-yl)oxy]-5-(pyridin-2-ylsulfanyl)pyridin-2-yl}amino)-1,2,4-thiadiazol-3-yl]ethane-1,2-diol] | thermal stability [5]: less preferred thermal stability characteristics |
| remained unchanged | non-hygroscopic | – | 0.8 | Cc1ncccc1Oc1cc(Sc2ccccn2)cnc1Nc1nc([C@H](O)CO)ns1 [phosphate salt Form A, (1S)-1-[5-({3-[(2-methylpyridin-3-yl)oxy]-5-(pyridin-2-ylsulfanyl)pyridin-2-yl}amino)-1,2,4-thiadiazol-3-yl]ethane-1,2-diol] | relative humidity by which the material fully re-hydrates [1]: ≤ 55 % relative humidity |
| converted to Form A | slightly hygroscopic | – | 3.5 | Cc1ncccc1Oc1cc(Sc2ccccn2)cnc1Nc1nc([C@H](O)CO)ns1 [phosphate salt Form B, (1S)-1-[5-({3-[(2-methylpyridin-3-yl)oxy]-5-(pyridin-2-ylsulfanyl)pyridin-2-yl}amino)-1,2,4-thiadiazol-3-yl]ethane-1,2-diol] | stability of the phase as a function of relative humidity [1]: unstable as a function of ambient relative humidity; weight loss upon drying ([1]; upon drying down to 5% relative humidity): 8.5% |
| – | – | – | – | Cc1ncccc1Oc1cc(Sc2ccccn2)cnc1Nc1nc([C@H](O)CO)ns1 [phosphate salt Form C, (1S)-1-[5-({3-[(2-methylpyridin-3-yl)oxy]-5-(pyridin-2-ylsulfanyl)pyridin-2-yl}amino)-1,2,4-thiadiazol-3-yl]ethane-1,2-diol] | form after exposure to 95% relative humidity [6]: converted to Form A; stability of the phase as a function of relative humidity [1]: unstable as a function of ambient relative humidity |
| remained unchanged | hygroscopic | above 55 % relative humidity | – | Cc1ncccc1Oc1cc(Sc2ccccn2)cnc1Nc1nc([C@H](O)CO)ns1 [phosphate salt Form D, (1S)-1-[5-({3-[(2-methylpyridin-3-yl)oxy]-5-(pyridin-2-ylsulfanyl)pyridin-2-yl}amino)-1,2,4-thiadiazol-3-yl]ethane-1,2-diol] | form after exposure to 95% relative humidity [6]: convert to Form E; stability of the phase as a function of relative humidity [1]: unstable as a function of ambient relative humidity; weight change ([1]; around 75% relative humidity (appears to convert to a mono-hydrate)): 3.0% |
| – | slightly hygroscopic | Above 65 % relative humidity | – | Cc1ncccc1Oc1cc(Sc2ccccn2)cnc1Nc1nc([C@H](O)CO)ns1 [phosphate salt Form E, (1S)-1-[5-({3-[(2-methylpyridin-3-yl)oxy]-5-(pyridin-2-ylsulfanyl)pyridin-2-yl}amino)-1,2,4-thiadiazol-3-yl]ethane-1,2-diol] | stability of the phase as a function of relative humidity [1]: unstable as a function of ambient relative humidity; relative humidity by which the material fully re-hydrates [1]: ≤ 65 % relative humidity |
| – | – | – | – | Cc1ncccc1Oc1cc(Sc2ccccn2)cnc1Nc1nc([C@H](O)CO)ns1 [phosphate salt, (1S)-1-[5-({3-[(2-methylpyridin-3-yl)oxy]-5-(pyridin-2-ylsulfanyl)pyridin-2-yl}amino)-1,2,4-thiadiazol-3-yl]ethane-1,2-diol] | time found stable ([3]; 40° C./75% RH): up to 6 weeks; form change on storage ([3]; 40° C./75% RH): no form change; time found stable ([3]; 60° C.): up to 6 weeks; form change on storage ([3]; 60° C.): no form change |

| SMILES | phase post vapor sorption experiment [1] | hygroscopicity ([1]; vapor sorption) | relative humidity above which the material is hygroscopic [1] | weight change [1, 7] [%] | further results |
| --- | --- | --- | --- | --- | --- |
| Cc1ncccc1Oc1cc(Sc2ccccn2)cnc1Nc1nc([C@H](O)CO)ns1 [Hydrate Form C, (1S)-1-[5-({3-[(2-methylpyridin-3-yl)oxy]-5-(pyridin-2-ylsulfanyl)pyridin-2-yl}amino)-1,2,4-thiadiazol-3-yl]ethane-1,2-diol] | remained unchanged | non hygroscopic; also recorded: non-hygroscopic | – | 0.25 | wt change ([1]; from 5% to 95% relative humidity): < 0.5%; form change on storage ([3]; 40° C./75% RH): no form change; time after which conversion to Form A was found ([3]; 60° C.): 2 weeks; form change on storage ([3]; 60° C., listed as free base mono-hydrate): converted to Form A |

— US20150299182A1, “CRYSTALLINE FORMS OF (1S)-1-[5-(AMINO)-1,2,4-THIADIAZOL-3-YL]ETHANE-1,2-DIOL” (Array BioPharma Inc., priority 2012, published 2015)
